These results are taken from patent US11541056B2, “3-hydroxy-N-(3-(7H-pyrrolo[2,3-d]pyrimidin-4-yl)phenyl)pyrrolidine-1-carboxamide derivatives” (NOVARTIS AG, priority 2018, dated 2023).

The subject of one assay is TMD8 cells. In words: Resazurin cell viability assay in DLBCL cells (TMD8). The assay is classed as cell-based. As to conditions: TMD8 cells (BTK dependent), 50% growth inhibition, read-out: TMD8 Prol GI50. How it is done:
(§1) Compounds of the invention were tested in the following cellular assays. The terms in Table 1 are defined as follows: DC50 refers to the concentration at which 50% maximal degradation was observed; deg Amax is the extent of degradation and the value refers to the % protein remaining at the concentration at which maximum degradation is seen; Prol GI50 refers to the proliferation data and defines the concentration at which 50% growth inhibition was observed compared to the vehicle treated control at the end of the incubation time. TMD8 cells are BTK dependent and OCI-LY3 cells are BTK independent.
Cell Viability Assay in DLBCL (Diffuse Large B-Cell Lymphoma) Cells:
The effect of the BTK compounds on cell proliferation was measured by a Resazurin (Sigma, #R7017) based cell viability assay. TMD8 (BTK compound sensitive) and OCI-LY3 (BTK compound insensitive) cells were incubated for 72 h at 37° C. and 5% CO2 with the corresponding compound. Resazurin is a non-toxic, cell-permeable substrate that is virtually non-fluorescent. Upon entering living cells, Resazurin (Sigma, #R7017) is reduced to highly fluorescent Resorufin. The metabolic activity was assessed by measuring the fluorescence signal (ex. 530 nm; em. 600 nm).
TMD8 and OCI-Ly3 cells were seeded at day 0 in triplicates at a cell density of 1×10^4 cells per 150 μl/well in a 96-well plate (Costar #3904). Additional plates were prepared, in order to assess the basal metabolic activity of both cell lines at the beginning of the experiment. For these reference plates, Resazurin (Sigma, #R7017) was added to a final concentration of 13 μg/ml 3 h post seeding and was incubated for 2 h at 37° C. and 5% CO2. Following incubation, the fluorescent signal intensity of the 96-well plates was measured on a Mithras LB940 multimode plate reader at 530/600 nm (Berthold Technologies, Germany).
In parallel, 3 h post-seeding, test-plates were treated with compound at various concentrations, or with vehicle (DMSO) alone for 3 days. The compound addition to the plates was performed by using a HP D300 digital dispenser (TECAN, Switzerland). The compounds were tested in triplicate, 8-point serial dilution (1:4), with a start concentration of 10 μM for OCI-LY3 and 1 μM for the TMD8 cells, respectively. To assess the relative proliferation of the cells, Resazurin was added to each well directly to the medium to a final concentration of 13 μg/ml. The plates were incubated for 2 h at 37° C. and 5% CO2 to result in a 72 h endpoint. Following incubation, the fluorescent signal intensity of the 96-well plates were measured on a Mithras LB940 multimode plate reader at 530/600 nm (Berthold Technologies, Germany). The formation of Resorufin dye directly correlates with the number of metabolically active cells. For each triplicate treatment the mean and standard deviation were calculated and analyzed via curve fitting software to determine the respective compound concentration resulting in 50% growth inhibition (GI50) values. For each compound GI50 values were typically determined from at least 2 entirely independent experiments.
TMD8 cells were acquired through a license agreement with Tokyo Medical and Dental University, Japan. Cells are cultivated in MEM Alpha (BioConcept, #1-23F01-I, lot. LB04262P) supplemented with 10% FCS (HyClone, GE #SH30066.03, lot AB217603), 2 mM L-Glutamine (BioConcept, #5-10K50-H, lot. LA03467P), 1% Pen/Strep (BioConcept, #4-01F00-H, lot. LB04235P).
In general terms: The colour change of resazurin is a common sign of viable cells or microbes.

A further assay deals with T1, BTK(C481S)-GFP (Homo sapiens, UniProt Q06187+Q96SW2, C481S).
T1 construct: with a mutagenesis reaction on pENTR221-BTK (STOP-Leu); CHYSEL (cis-acting hydrolase element, 2A) remnant after GFP; mCherry is split off as a separate protein (C); expressed in transfected cells; host or cells: TMD8 cells, lentiviral transduction with pLenti6-BTK(C481S)-GFP-CHYSEL-mCherry
T1 sequence (Q06187 whole entry C481S): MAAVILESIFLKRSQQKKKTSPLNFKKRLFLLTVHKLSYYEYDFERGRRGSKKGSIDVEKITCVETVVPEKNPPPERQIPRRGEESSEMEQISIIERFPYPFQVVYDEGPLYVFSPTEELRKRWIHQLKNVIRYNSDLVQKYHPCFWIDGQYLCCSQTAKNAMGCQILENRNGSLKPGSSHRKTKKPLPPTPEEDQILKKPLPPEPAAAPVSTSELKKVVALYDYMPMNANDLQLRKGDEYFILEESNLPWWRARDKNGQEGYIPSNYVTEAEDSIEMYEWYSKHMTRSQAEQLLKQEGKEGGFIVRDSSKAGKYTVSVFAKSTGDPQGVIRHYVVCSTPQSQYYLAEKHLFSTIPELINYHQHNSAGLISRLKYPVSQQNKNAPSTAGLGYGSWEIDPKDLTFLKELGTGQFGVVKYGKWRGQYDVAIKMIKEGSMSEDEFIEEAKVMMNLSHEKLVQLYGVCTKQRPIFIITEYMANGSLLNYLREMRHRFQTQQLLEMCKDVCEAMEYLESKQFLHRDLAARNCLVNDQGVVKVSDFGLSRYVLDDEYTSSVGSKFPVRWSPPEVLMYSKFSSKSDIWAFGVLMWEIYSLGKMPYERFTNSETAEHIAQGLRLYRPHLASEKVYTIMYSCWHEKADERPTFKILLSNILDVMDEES
T1 sequence (Q96SW2 whole entry): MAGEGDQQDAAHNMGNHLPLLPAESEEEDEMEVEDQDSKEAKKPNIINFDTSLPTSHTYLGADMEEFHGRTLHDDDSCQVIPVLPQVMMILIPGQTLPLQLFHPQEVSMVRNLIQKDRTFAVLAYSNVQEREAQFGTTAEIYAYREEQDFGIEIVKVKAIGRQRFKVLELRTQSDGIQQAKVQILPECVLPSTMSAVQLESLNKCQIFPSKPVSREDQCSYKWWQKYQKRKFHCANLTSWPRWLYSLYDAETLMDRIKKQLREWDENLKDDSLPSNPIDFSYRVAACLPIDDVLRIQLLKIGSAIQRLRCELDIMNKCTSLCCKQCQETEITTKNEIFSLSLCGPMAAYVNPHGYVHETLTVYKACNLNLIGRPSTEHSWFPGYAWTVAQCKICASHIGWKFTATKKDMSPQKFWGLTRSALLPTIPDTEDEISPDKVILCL
T1 sequence (Q16531 whole entry partner): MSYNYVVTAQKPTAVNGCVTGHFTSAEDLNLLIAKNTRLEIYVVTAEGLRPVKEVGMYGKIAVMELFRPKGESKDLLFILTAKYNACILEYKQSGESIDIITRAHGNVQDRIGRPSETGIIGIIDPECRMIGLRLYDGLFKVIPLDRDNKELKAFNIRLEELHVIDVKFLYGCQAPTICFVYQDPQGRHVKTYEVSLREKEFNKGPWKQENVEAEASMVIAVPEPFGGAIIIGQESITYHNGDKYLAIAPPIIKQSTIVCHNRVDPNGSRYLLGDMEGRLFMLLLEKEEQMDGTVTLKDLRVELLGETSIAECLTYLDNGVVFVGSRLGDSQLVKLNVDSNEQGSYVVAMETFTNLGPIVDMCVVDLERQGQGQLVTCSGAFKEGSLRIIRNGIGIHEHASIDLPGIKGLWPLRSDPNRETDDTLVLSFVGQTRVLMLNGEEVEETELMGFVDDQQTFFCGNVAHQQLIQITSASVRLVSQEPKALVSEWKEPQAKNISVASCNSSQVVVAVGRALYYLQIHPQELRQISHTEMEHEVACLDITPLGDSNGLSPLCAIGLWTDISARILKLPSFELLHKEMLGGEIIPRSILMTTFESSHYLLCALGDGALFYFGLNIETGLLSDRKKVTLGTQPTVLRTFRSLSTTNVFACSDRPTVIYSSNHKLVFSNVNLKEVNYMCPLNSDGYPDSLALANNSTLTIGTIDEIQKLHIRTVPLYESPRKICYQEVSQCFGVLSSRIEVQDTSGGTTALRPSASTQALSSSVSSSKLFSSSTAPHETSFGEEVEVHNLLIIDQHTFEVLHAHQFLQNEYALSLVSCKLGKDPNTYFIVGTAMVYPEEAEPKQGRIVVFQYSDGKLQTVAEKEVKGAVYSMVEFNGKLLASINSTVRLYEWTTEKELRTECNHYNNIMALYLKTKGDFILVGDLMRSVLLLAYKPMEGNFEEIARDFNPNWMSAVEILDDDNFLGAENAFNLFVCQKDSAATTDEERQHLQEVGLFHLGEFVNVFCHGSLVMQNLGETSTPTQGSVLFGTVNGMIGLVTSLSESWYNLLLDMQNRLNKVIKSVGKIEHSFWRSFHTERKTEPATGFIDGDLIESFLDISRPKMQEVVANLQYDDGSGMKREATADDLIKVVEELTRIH
Kind of assay: BTK(C481S)-GFP protein abundance flow cytometry assay in TMD8 cells. As to conditions: for BTK (C481S) Amax %: % protein remaining at concentration of maximum degradation; for DC50: concentration at which 50% maximal degradation was observed. The assay is classed as cell-based. How it is done: as §1
BTK(C481S)-GFP Protein Abundance Flow Cytometry Assay in TMD8 Cells:
Degradation of BTK(C481S) was measured in TMD8 cells expressing BTK(C481S)-GFP and mCherry from a stably integrated second generation bicistronic BTK(C481S)-GFP-CHYSEL-mCherry construct. Reduction of the GFP signal measured by flow cytometry served as readout for BTK(C481S) degradation after degrader treatment.

Where two headings read alike, the source gives them in different places.

For orientation: GI50 means the concentration at which growth is held to half of that of the control. The DC50 is the concentration at which degradation of the target reaches its halfway point. A high value points to degradation only at high concentration. For the compound `COc1ccc(C(=O)N2CCC3(CCN(Cc4ccc(-c5cc6c(-c7cc(F)cc(NC(=O)N8C[C@@H](CC(C)C)[C@H](O)C8)c7C)ncnc6[nH]5)cc4)CC3)CC2)cc1N1CCC(=O)NC1=O` (racemic) [Compound 5, trans-rac-N-(3-(6-(4-((9-(3-(2,4-Dioxotetrahydropyrimidin-1(2H)-yl)-4-methoxybenzoyl)-3,9-diazaspiro[5.5]undecan-3-yl)methyl)phenyl)-7H-pyrrolo[2,3-d]pyrimidin-4-yl)-5-fluoro-2-methylphenyl)-3-hydroxy-4-isobutylpyrrolidine-1-carboxamide], the GI50 with TMD8 cells (72 h) stood at 0.73 nM. At BTK(C481S)-GFP, the “BTK (C481S) Amax %” value came to 2.0% and the 50% degradation concentration (DC50) was 1.3 nM.
For the compound `COc1ccc(C(=O)N2CCC3(CCN(Cc4ccc(-c5cc6c(-c7cc(F)cc(NC(=O)N8C[C@@H](CC(C)C)[C@H](O)C8)c7C)ncnc6[nH]5)cc4)CC3)CC2)cc1N1CCC(=O)NC1=O` [Compound 1, (3S,4R)—N-(3-(6-(4-((9-(3-(2,4-Dioxotetrahydropyrimidin-1(2H)-yl)-4-methoxybenzoyl)-3,9-diazaspiro[5.5]undecan-3-yl)methyl)phenyl)-7H-pyrrolo[2,3-d]pyrimidin-4-yl)-5-fluoro-2-methylphenyl)-3-hydroxy-4-isobutylpyrrolidine-1-carboxamide], the concentration for 50% growth inhibition (GI50) with TMD8 cells (Homo sapiens, TMD8, 72 h) came to 14 nM. On BTK(C481S)-GFP, the “BTK (C481S) Amax %” value came to 3.6% and half-maximal degradation (DC50) was put at 41 nM.
For `COc1ccc(C(=O)N2CCC(OCCN3CCN(Cc4ccc(-c5cc6c(-c7cc(F)cc(NC(=O)N8C[C@H](CC(C)C)[C@@H](O)C8)c7C)ncnc6[nH]5)cc4)CC3)CC2)cc1N1CCC(=O)NC1=O` [Compound 2, (3R,4S)—N-(3-(6-(4-((4-(2-((1-(3-(2,4-Dioxotetrahydropyrimidin-1 (2H)-yl)-4-methoxybenzoyl)piperidin-4-yl)oxy)ethyl)piperazin-1-yl)methyl)phenyl)-7H-pyrrolo[2,3-d]pyrimidin-4-yl)-5-fluoro-2-methylphenyl)-3-hydroxy-4-isobutylpyrrolidine-1-carboxamide] the same measures were 0.31 nM, 2.0% and 0.4 nM.
As to `COc1ccc(C(=O)N2CCC3(CCN(Cc4ccc(-c5cc6c(-c7cc(F)cc(NC(=O)N8C[C@H](CC(C)C)[C@@H](O)C8)c7C)ncnc6[nH]5)cc4)CC3)CC2)cc1N1CCC(=O)NC1=O` [Compound 6, (3R,4S)—N-(3-(6-(4-((9-(3-(2,4-Dioxotetrahydropyrimidin-1(2H)-yl)-4-methoxybenzoyl)-3,9-diazaspiro[5.5]undecan-3-yl)methyl)phenyl)-7H-pyrrolo[2,3-d]pyrimidin-4-yl)-5-fluoro-2-methylphenyl)-3-hydroxy-4-isobutylpyrrolidine-1-carboxamide], the GI50 in the assay on TMD8 cells (Homo sapiens, TMD8, 72 h) was 0.45 nM. At BTK(C481S)-GFP, the “BTK (C481S) Amax %” value was determined as 2.1% and the half-maximal degradation concentration (DC50) was 0.7 nM.
As for `COc1ccc(C(=O)N2CCC(OC3CCN(Cc4ccc(-c5cc6c(-c7cc(F)cc(NC(=O)N8C[C@H](CC(C)C)[C@@H](O)C8)c7C)ncnc6[nH]5)cc4)CC3)CC2)cc1N1CCC(=O)NC1=O` [Compound 8, (3R,4S)—N-(3-(6-(4-((4-((1-(3-(2,4-Dioxotetrahydropyrimidin-1(2H)-yl)-4-methoxybenzoyl)piperidin-4-yl)oxy)piperidin-1-yl)methyl)phenyl)-7H-pyrrolo[2,3-d]pyrimidin-4-yl)-5-fluoro-2-methylphenyl)-3-hydroxy-4-isobutylpyrrolidine-1-carboxamide], in the assay on TMD8 cells (Homo sapiens, TMD8, 72 h), the GI50 amounted to 0.4 nM. Further, on BTK(C481S)-GFP, the “BTK (C481S) Amax %” value is reported as 2.7% and half-maximal degradation (DC50) was put at 0.4 nM.
`COc1ccc(C(=O)N2CCC(CN3CCC(Oc4ccc(-c5cc6c(-c7cc(F)cc(NC(=O)N8C[C@H](CC(C)C)[C@@H](O)C8)c7C)ncnc6[nH]5)cc4)CC3)CC2)cc1N1CCC(=O)NC1=O` [Compound 11, (3R,4S)—N-(3-(6-(4-((1-((1-(3-(2,4-Dioxotetrahydropyrimidin-1 (2H)-yl)-4-methoxybenzoyl)piperidin-4-yl)methyl)piperidin-4-yl)oxy)phenyl)-7H-pyrrolo[2,3-d]pyrimidin-4-yl)-5-fluoro-2-methylphenyl)-3-hydroxy-4-isobutylpyrrolidine-1-carboxamide]: the GI50 in the assay with TMD8 cells (Homo sapiens, TMD8, 72 h) is 0.18 nM. On BTK(C481S)-GFP, the “BTK (C481S) Amax %” value came out at 2.2% and half-maximal degradation (DC50) was put at 0.2 nM.
For `COc1ccc(C(=O)N2CCC(CN3CCN(Cc4ccc(-c5cc6c(-c7cc(F)cc(NC(=O)N8C[C@H](CC(C)C)[C@@H](O)C8)c7C)ncnc6[nH]5)cc4)CC3)CC2)cc1N1CCC(=O)NC1=O` [Compound 12, (3R,4S)—N-(3-(6-(4-((4-((1-(3-(2,4-Dioxotetrahydropyrimidin-1(2H)-yl)-4-methoxybenzoyl)piperidin-4-yl)methyl)piperazin-1-yl)methyl)phenyl)-7H-pyrrolo[2,3-d]pyrimidin-4-yl)-5-fluoro-2-methylphenyl)-3-hydroxy-4-isobutylpyrrolidine-1-carboxamide], in the assay on TMD8 cells (Homo sapiens, TMD8, 72 h), the 50% growth inhibitory concentration (GI50) came out at 0.3 nM. In addition, on BTK(C481S)-GFP, the “BTK (C481S) Amax %” value worked out at 3.0% and the DC50 was 0.3 nM.
Consider `COc1ccc(C(=O)N2CCC(OC3CCN(CCc4ccc(-c5cc6c(-c7cc(F)cc(NC(=O)N8C[C@H](CC(C)C)[C@@H](O)C8)c7C)ncnc6[nH]5)cc4)CC3)CC2)cc1N1CCC(=O)NC1=O` [Compound 13, (3R,4S)—N-(3-(6-(4-(2-(4-((1-(3-(2,4-Dioxotetrahydropyrimidin-1(2H)-yl)-4-methoxybenzoyl)piperidin-4-yl)oxy)piperidin-1-yl)ethyl)phenyl)-7H-pyrrolo[2,3-d]pyrimidin-4-yl)-5-fluoro-2-methylphenyl)-3-hydroxy-4-isobutylpyrrolidine-1-carboxamide], for which, in the assay with TMD8 cells (Homo sapiens, TMD8, 72 h), the 50% growth inhibitory concentration (GI50) was determined as 0.24 nM. Besides, at BTK(C481S)-GFP, the “BTK (C481S) Amax %” value came out at 1.1% and half-maximal degradation (DC50) was put at 0.2 nM.
In the same order, the values of `COc1ccc(C(=O)N2CCC3(CCN(CCc4ccc(-c5cc6c(-c7cc(F)cc(NC(=O)N8C[C@H](CC(C)C)[C@@H](O)C8)c7C)ncnc6[nH]5)cc4)CC3)CC2)cc1N1CCC(=O)NC1=O` [Compound 15, (3R,4S)—N-(3-(6-(4-(2-(9-(3-(2,4-Dioxotetrahydropyrimidin-1(2H)-yl)-4-methoxybenzoyl)-3,9-diazaspiro[5.5]undecan-3-yl)ethyl)phenyl)-7H-pyrrolo[2,3-d]pyrimidin-4-yl)-5-fluoro-2-methylphenyl)-3-hydroxy-4-isobutylpyrrolidine-1-carboxamide] are 0.22 nM, 3.0% and 0.9 nM.
As to `COc1ccc(C(=O)N2CCC3(CCN(CCc4ccc(-c5cc6c(-c7cc(F)cc(NC(=O)N8C[C@@H](CC(C)C)[C@H](O)C8)c7C)ncnc6[nH]5)cc4)CC3)CC2)cc1N1CCC(=O)NC1=O` [Compound 19, (3S,4R)—N-(3-(6-(4-(2-(9-(3-(2,4-dioxotetrahydropyrimidin-1(2H)-yl)-4-methoxybenzoyl)-3,9-diazaspiro[5.5]undecan-3-yl)ethyl)phenyl)-7H-pyrrolo[2,3-d]pyrimidin-4-yl)-5-fluoro-2-methylphenyl)-3-hydroxy-4-isobutylpyrrolidine-1-carboxamide], the GI50 in the assay with TMD8 cells (Homo sapiens, TMD8, 72 h) is 4.87 nM. At BTK(C481S)-GFP, the “BTK (C481S) Amax %” value amounted to 2.9% and the half-maximal degradation concentration (DC50) turned out to be 16 nM.
